Experimental data as given in ChEMBL document CHEMBL3885861, “Open TG-GATES”.

Species: Rattus norvegicus
Test: Open TG-GATES - Regimen: Single
Format: toxicity, organism-based, Sprague-Dawley
Design: regimen Single, gender Male, age 6 weeks
Details: in vivo, ip, route intraperitoneal injection; for APTT / Bas / Eos / Fbg / Hb / Ht / Lym / MCH / MCHC / MCV / Mono / Neu / PT / Plat / RBC / Ret / WBC: tissue Blood; for KIDNEY_L / KIDNEY_R / KIDNEY_TOTAL: tissue Kidney; for LIVER: tissue Liver; for A/G / ALP / ALT / AST / BUN / CRE / Ca / Cl / DBIL / GLC / IP / K / LDH / Na / PL / RALB / TBIL / TC / TG / TP / gamma-GTP: tissue Plasma
[1] = 300 mg/kg, 3 h, dose level Middle
[2] = 300 mg/kg, 6 h, dose level Middle
[3] = 300 mg/kg, 9 h, dose level Middle
[4] = 300 mg/kg, 24 h, dose level Middle
[5] = 1000 mg/kg, 3 h, dose level High
[6] = 1000 mg/kg, 6 h, dose level High
[7] = 1000 mg/kg, 9 h, dose level High
[8] = 1000 mg/kg, 24 h, dose level High

## N[C@H]1C(O)O[C@H](CO)[C@@H](O)[C@@H]1O (some centres undefined) [GLUCOSAMINE]
[1]
  TERMINAL_BW: 188.6 g
  APTT: 17.5 s
  Bas: 0.4%
  Eos: 0.4%
  Fbg: 247.4 mg/dL
  Hb: 12.6 g/dL
  Ht: 38.9%
  Lym: 67%
  MCH: 21 pg
  MCHC: 32.3%
  MCV: 64.9 fL
  Mono: 4%
  Neu: 27%
  PT: 16.2 s
  Plat: 112.1 x10_4/uL
  RBC: 600.6 x10_4/ul
  Ret: 9.4%
  WBC: 96.7 x10_2/uL
  KIDNEY_L: 0.9 g
  KIDNEY_R: 0.9 g
  KIDNEY_TOTAL: 1.8 g
  LIVER: 8.4 g
  A/G: 0.9
  ALP: 1578.8 IU/L
  ALT: 43.4 IU/L
  AST: 82 IU/L
  BUN: 10.6 mg/dL
  CRE: 0.2 mg/dL
  Ca: 10.5 mg/dL
  Cl: 107.8 meq/L
  DBIL: 0.012 mg/dL
  GLC: 165.8 mg/dL
  IP: 8.9 mg/dL
  K: 4 meq/L
  LDH: 55.6 IU/L
  Na: 142.2 meq/L
  PL: 136.4 mg/dL
  RALB: 2.3 g/dL
  TBIL: 0.052 mg/dL
  TC: 76.6 mg/dL
  TG: 34.8 mg/dL
  TP: 5 g/dL
  gamma-GTP: 1 IU/L
[2]
  TERMINAL_BW: 188.8 g
  APTT: 20.1 s
  Bas: 0.2%
  Eos: 1%
  Fbg: 234.4 mg/dL
  Hb: 13.6 g/dL
  Ht: 41.5%
  Lym: 63%
  MCH: 21.3 pg
  MCHC: 32.7%
  MCV: 65.2 fL
  Mono: 2.6%
  Neu: 32.6%
  PT: 18.9 s
  Plat: 107.5 x10_4/uL
  RBC: 636.8 x10_4/ul
  Ret: 9%
  WBC: 50.8 x10_2/uL
  KIDNEY_L: 0.8 g
  KIDNEY_R: 0.8 g
  KIDNEY_TOTAL: 1.6 g
  LIVER: 8.4 g
  A/G: 0.9
  ALP: 1576.2 IU/L
  ALT: 145.8 IU/L
  AST: 213.4 IU/L
  BUN: 13.8 mg/dL
  CRE: 0.2 mg/dL
  Ca: 10.2 mg/dL
  Cl: 107.2 meq/L
  DBIL: 0.01 mg/dL
  GLC: 164.4 mg/dL
  IP: 9 mg/dL
  K: 3.7 meq/L
  LDH: 212.6 IU/L
  Na: 142.4 meq/L
  PL: 129.8 mg/dL
  RALB: 2.3 g/dL
  TBIL: 0.054 mg/dL
  TC: 70 mg/dL
  TG: 17.8 mg/dL
  TP: 4.9 g/dL
  gamma-GTP: 1 IU/L
[3]
  TERMINAL_BW: 183.2 g
  APTT: 18.5 s
  Bas: 0%
  Eos: 0.6%
  Fbg: 307.6 mg/dL
  Hb: 12.7 g/dL
  Ht: 39%
  Lym: 73%
  MCH: 21.1 pg
  MCHC: 32.6%
  MCV: 64.7 fL
  Mono: 1.8%
  Neu: 23.6%
  PT: 17.2 s
  Plat: 109.8 x10_4/uL
  RBC: 602.8 x10_4/ul
  Ret: 9.2%
  WBC: 55.1 x10_2/uL
  KIDNEY_L: 0.9 g
  KIDNEY_R: 0.9 g
  KIDNEY_TOTAL: 1.7 g
  LIVER: 7.3 g
  A/G: 0.9
  ALP: 1464 IU/L
  ALT: 40.6 IU/L
  AST: 84.4 IU/L
  BUN: 7.6 mg/dL
  CRE: 0.1 mg/dL
  Ca: 10.3 mg/dL
  Cl: 107.4 meq/L
  DBIL: 0.012 mg/dL
  GLC: 162.2 mg/dL
  IP: 9.9 mg/dL
  K: 3.8 meq/L
  LDH: 54.6 IU/L
  Na: 142 meq/L
  PL: 117.8 mg/dL
  RALB: 2.4 g/dL
  TBIL: 0.06 mg/dL
  TC: 63.4 mg/dL
  TG: 23.6 mg/dL
  TP: 5.2 g/dL
  gamma-GTP: 0.8 IU/L
[4]
  TERMINAL_BW: 190.9 g
  APTT: 19.9 s
  Bas: 0.6%
  Eos: 1.4%
  Fbg: 205.8 mg/dL
  Hb: 14.1 g/dL
  Ht: 43.4%
  Lym: 70%
  MCH: 20.9 pg
  MCHC: 32.5%
  MCV: 64.3 fL
  Mono: 3.8%
  Neu: 23%
  PT: 25.4 s
  Plat: 102.4 x10_4/uL
  RBC: 675.6 x10_4/ul
  Ret: 7.9%
  WBC: 79.5 x10_2/uL
  KIDNEY_L: 0.8 g
  KIDNEY_R: 0.9 g
  KIDNEY_TOTAL: 1.7 g
  LIVER: 8.1 g
  A/G: 0.9
  ALP: 2031.4 IU/L
  ALT: 214.6 IU/L
  AST: 341.6 IU/L
  BUN: 13.4 mg/dL
  CRE: 0.2 mg/dL
  Ca: 10.3 mg/dL
  Cl: 107 meq/L
  DBIL: 0.068 mg/dL
  GLC: 165.4 mg/dL
  IP: 9.1 mg/dL
  K: 4.3 meq/L
  LDH: 168 IU/L
  Na: 143.8 meq/L
  PL: 118.2 mg/dL
  RALB: 2.4 g/dL
  TBIL: 0.1 mg/dL
  TC: 57.2 mg/dL
  TG: 42 mg/dL
  TP: 5.2 g/dL
  gamma-GTP: 1 IU/L
[5]
  TERMINAL_BW: 188.7 g
  APTT: 21 s
  Bas: 0.2%
  Eos: 0.8%
  Fbg: 265 mg/dL
  Hb: 12.8 g/dL
  Ht: 39.4%
  Lym: 73.6%
  MCH: 21 pg
  MCHC: 32.4%
  MCV: 64.9 fL
  Mono: 3.4%
  Neu: 21.2%
  PT: 16.7 s
  Plat: 106.7 x10_4/uL
  RBC: 608 x10_4/ul
  Ret: 9.6%
  WBC: 92.4 x10_2/uL
  KIDNEY_L: 0.8 g
  KIDNEY_R: 0.8 g
  KIDNEY_TOTAL: 1.6 g
  LIVER: 8.9 g
  A/G: 0.9
  ALP: 1493 IU/L
  ALT: 50 IU/L
  AST: 92.6 IU/L
  BUN: 12 mg/dL
  CRE: 0.2 mg/dL
  Ca: 10.6 mg/dL
  Cl: 110 meq/L
  DBIL: 0.012 mg/dL
  GLC: 167.2 mg/dL
  IP: 7.1 mg/dL
  K: 3.9 meq/L
  LDH: 93.4 IU/L
  Na: 143.4 meq/L
  PL: 129.4 mg/dL
  RALB: 2.5 g/dL
  TBIL: 0.064 mg/dL
  TC: 71.4 mg/dL
  TG: 25 mg/dL
  TP: 5.2 g/dL
  gamma-GTP: 1 IU/L
[6]
  TERMINAL_BW: 187.1 g
  APTT: 18.1 s
  Bas: 0%
  Eos: 0.2%
  Fbg: 246.6 mg/dL
  Hb: 13.4 g/dL
  Ht: 41.5%
  Lym: 62.8%
  MCH: 21 pg
  MCHC: 32.3%
  MCV: 65.1 fL
  Mono: 1.4%
  Neu: 34.4%
  PT: 18.9 s
  Plat: 102.2 x10_4/uL
  RBC: 637.8 x10_4/ul
  Ret: 9%
  WBC: 60.4 x10_2/uL
  KIDNEY_L: 0.9 g
  KIDNEY_R: 0.8 g
  KIDNEY_TOTAL: 1.7 g
  LIVER: 8.4 g
  A/G: 0.9
  ALP: 1303.2 IU/L
  ALT: 131 IU/L
  AST: 226.6 IU/L
  BUN: 12.2 mg/dL
  CRE: 0.2 mg/dL
  Ca: 10.3 mg/dL
  Cl: 107.8 meq/L
  DBIL: 0.02 mg/dL
  GLC: 159.4 mg/dL
  IP: 8.2 mg/dL
  K: 3.7 meq/L
  LDH: 316.4 IU/L
  Na: 142.8 meq/L
  PL: 125.6 mg/dL
  RALB: 2.3 g/dL
  TBIL: 0.072 mg/dL
  TC: 68.8 mg/dL
  TG: 17.8 mg/dL
  TP: 5 g/dL
  gamma-GTP: 1 IU/L
[7]
  TERMINAL_BW: 182.7 g
  APTT: 18.9 s
  Bas: 0%
  Eos: 0.8%
  Fbg: 289.2 mg/dL
  Hb: 13.2 g/dL
  Ht: 40.3%
  Lym: 68%
  MCH: 21.1 pg
  MCHC: 32.7%
  MCV: 64.6 fL
  Mono: 2.2%
  Neu: 28.2%
  PT: 17.4 s
  Plat: 108.7 x10_4/uL
  RBC: 624.8 x10_4/ul
  Ret: 9.7%
  WBC: 63.8 x10_2/uL
  KIDNEY_L: 0.8 g
  KIDNEY_R: 0.8 g
  KIDNEY_TOTAL: 1.6 g
  LIVER: 7.5 g
  A/G: 0.9
  ALP: 1707.4 IU/L
  ALT: 72.2 IU/L
  AST: 136.6 IU/L
  BUN: 9.4 mg/dL
  CRE: 0.2 mg/dL
  Ca: 10.3 mg/dL
  Cl: 108.8 meq/L
  DBIL: 0.016 mg/dL
  GLC: 159.6 mg/dL
  IP: 9.9 mg/dL
  K: 3.9 meq/L
  LDH: 111.4 IU/L
  Na: 143.2 meq/L
  PL: 142.2 mg/dL
  RALB: 2.5 g/dL
  TBIL: 0.07 mg/dL
  TC: 79.2 mg/dL
  TG: 22 mg/dL
  TP: 5.4 g/dL
  gamma-GTP: 1 IU/L
[8]
  TERMINAL_BW: 192.2 g
  APTT: 23.1 s
  Bas: 0.4%
  Eos: 1.2%
  Fbg: 165.4 mg/dL
  Hb: 13.8 g/dL
  Ht: 42.5%
  Lym: 63.2%
  MCH: 21 pg
  MCHC: 32.5%
  MCV: 64.6 fL
  Mono: 4.6%
  Neu: 28.4%
  PT: 33.2 s
  Plat: 109 x10_4/uL
  RBC: 658 x10_4/ul
  Ret: 8.6%
  WBC: 78.4 x10_2/uL
  KIDNEY_L: 0.9 g
  KIDNEY_R: 0.9 g
  KIDNEY_TOTAL: 1.8 g
  LIVER: 8.1 g
  A/G: 0.9
  ALP: 2378 IU/L
  ALT: 313.8 IU/L
  AST: 571.6 IU/L
  BUN: 12.6 mg/dL
  CRE: 0.2 mg/dL
  Ca: 10.3 mg/dL
  Cl: 106.2 meq/L
  DBIL: 0.2 mg/dL
  GLC: 147.6 mg/dL
  IP: 9.3 mg/dL
  K: 4.2 meq/L
  LDH: 727.6 IU/L
  Na: 143.2 meq/L
  PL: 99.6 mg/dL
  RALB: 2.3 g/dL
  TBIL: 0.3 mg/dL
  TC: 51.6 mg/dL
  TG: 25.2 mg/dL
  TP: 4.9 g/dL
  gamma-GTP: 1.2 IU/L
